Assay: Exposure of crystalline form to about 100% room humidity, crystal form monitored by XRD
Type: physicochemical
Settings: after exposure to about 100% RH for about 7 days at about room temperature, Form I prepared from ethyl acetate (about 80 mg)
Description: A round aluminum sample holder with zero background was used.

Crystal form: Amorphous
SMILES: CN(C)c1cc(NC(=O)CNC(C)(C)C)c(O)c2c1C[C@H]1C[C@H]3[C@H](N(C)C)C(O)=C(C(N)=O)C(=O)[C@@]3(O)C(O)=C1C2=O [Form I, (4S,4aS,5aR,12aS)-9-(2-(tert-butylamino)acetamido)-4,7-bis(dimethylamino)-1,4,4a,5,5a,6,11,12a-octahydro-3,10,12,12a-tetrahydroxy-1,11-dioxo-2-naphthacenecarboxamide]

From patent publication US8207361B2, “Tigecycline crystalline forms and processes for preparation thereof” (Teva Pharmaceutical Industries Ltd., priority 2006, dated 2012)
